In ChEMBL document CHEMBL1201862, “PubChem BioAssay data set” (2004):
Values belong to the compound of their own block, whether it stands above or below them. Calls of active or inactive are those of the source.

Legend:
cells = type: functional, cell-based
[1] = biological target: T1, Nuclear receptor subfamily 0 group B member 1 (Homo sapiens, UniProt P51843); type: functional, cell-based;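 further: HEK293T cells transfected with SF-1 and DAX-1 plus StAR promoter luciferase reporter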
T1 sequence (P51843 whole entry): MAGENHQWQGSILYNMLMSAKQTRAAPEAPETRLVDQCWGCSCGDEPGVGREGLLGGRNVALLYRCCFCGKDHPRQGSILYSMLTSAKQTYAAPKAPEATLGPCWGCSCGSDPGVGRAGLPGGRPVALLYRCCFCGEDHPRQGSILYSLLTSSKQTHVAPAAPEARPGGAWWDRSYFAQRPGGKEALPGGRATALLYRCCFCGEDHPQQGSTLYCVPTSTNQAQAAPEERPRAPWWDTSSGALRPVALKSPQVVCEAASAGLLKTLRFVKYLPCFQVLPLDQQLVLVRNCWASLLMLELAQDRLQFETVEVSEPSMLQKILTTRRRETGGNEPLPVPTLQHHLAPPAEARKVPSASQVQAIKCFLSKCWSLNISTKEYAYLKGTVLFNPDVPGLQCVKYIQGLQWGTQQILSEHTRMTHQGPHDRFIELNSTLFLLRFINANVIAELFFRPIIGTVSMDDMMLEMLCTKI

[2] = biological target: Ras and Rab interactor 1/Tyrosine-protein kinase ABL1 (Homo sapiens, UniProt P00519+Q13671); type: functional;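 further: biochemical TR-FRET dose-response test measuring inhibition of binding between Rin1 and Abl proteins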
[3] = biological target: T2, COUP transcription factor 2 (Homo sapiens, UniProt P24468); experiment: Luminescence-based cell-based high throughput dose response assay to identify inhibitors of COUP-TFII (NR2F2).; type: functional;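 further: HEK293 cells transiently cotransfected with COUP-TFII expression vector and reporter; luciferase reporter luminescence driven by COUP-TFII from the pX2-168 reporter plasmid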
T2 sequence (P24468 whole entry): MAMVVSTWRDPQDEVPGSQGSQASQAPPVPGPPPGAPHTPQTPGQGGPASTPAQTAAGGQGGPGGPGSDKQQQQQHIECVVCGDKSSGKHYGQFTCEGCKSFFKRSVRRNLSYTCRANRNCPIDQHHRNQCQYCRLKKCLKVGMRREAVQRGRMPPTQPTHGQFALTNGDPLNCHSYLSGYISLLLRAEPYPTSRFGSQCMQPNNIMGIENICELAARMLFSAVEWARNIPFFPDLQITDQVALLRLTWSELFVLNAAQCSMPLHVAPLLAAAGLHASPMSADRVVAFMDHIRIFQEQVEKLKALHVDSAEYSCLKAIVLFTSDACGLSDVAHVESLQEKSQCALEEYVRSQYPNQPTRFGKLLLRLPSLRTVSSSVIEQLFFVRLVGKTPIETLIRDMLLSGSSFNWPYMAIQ

Melanocortin receptor 4 = Melanocortin receptor 4 (Homo sapiens, UniProt P32245); type: functional, cell-based;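 further: Cell-based assay with luminescence read-out, confirmatory dose-response testing for agonist activity of biased ligands at MC4R; human U2OS cells with tagged receptor and beta-arrestin; potency of agonists that increase receptor coupling to beta-arrestin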
[4] = biological target: Nuclear receptor subfamily 5 group A member 2 (Homo sapiens, UniProt O00482); type: functional, cell-based;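 further: HEK293T cells transfected with LRH-1 and a StAR promoter luciferase reporter; potency for inhibitors that lower LRH-1 driven reporter light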
Steroidogenic factor 1 = Steroidogenic factor 1 (Homo sapiens, UniProt Q13285); experiment: Counterscreen for inverse agonists of the liver receptor homolog-1 (LRH-1; NR5A2): Luminescence-based cell-based high throughput dose response assay to identify inverse agonists of the Steroidogenic Factor 1 Nuclear Receptor (SF1; NR5A1).; type: functional
[5] = StAR promoter reporter inhibition counter-screen, dose response, counter-screen for LRH-1 inverse agonist project, cell-based, luminescence, luciferase reporter (AID 651969); type: functional
[6] = biological target: T3, Small ubiquitin-related modifier 2 (Homo sapiens, UniProt P61956); experiment: SUMO2–SIM peptide binding inhibitors, dose response, selectivity assay for SUMO1 interaction inhibitor project, biochemical, fluorescence polarization, uHTS hits (AID 624385); type: functional; conditions: read-out: IC50_Mean
[7] = biological target: T4, Small ubiquitin-related modifier 1 (Homo sapiens, UniProt P63165); experiment: inhibitors of SUMO1 peptide binding, dose response, biochemical, fluorescence polarization, uHTS hits (AID 624382); type: functional; conditions: read-out: IC50_Mean
[8] = biological target: T3, Small ubiquitin-related modifier 2; experiment: inhibitors of SUMO2 protein-protein interaction, dose response, selectivity assay for SUMO1 interaction inhibitor project, biochemical, FRET, human SUMO2, uHTS hits (AID 624384); type: functional; conditions: read-out: IC50_Mean
[9] = biological target: T4, Small ubiquitin-related modifier 1; experiment: inhibitors of SUMO1 partner interactions, dose response, biochemical, FRET (AID 624383); type: functional; conditions: read-out: IC50_Mean

Ras and Rab interactor 1/Tyrosine-protein kinase ABL1, sequence (P00519 whole entry): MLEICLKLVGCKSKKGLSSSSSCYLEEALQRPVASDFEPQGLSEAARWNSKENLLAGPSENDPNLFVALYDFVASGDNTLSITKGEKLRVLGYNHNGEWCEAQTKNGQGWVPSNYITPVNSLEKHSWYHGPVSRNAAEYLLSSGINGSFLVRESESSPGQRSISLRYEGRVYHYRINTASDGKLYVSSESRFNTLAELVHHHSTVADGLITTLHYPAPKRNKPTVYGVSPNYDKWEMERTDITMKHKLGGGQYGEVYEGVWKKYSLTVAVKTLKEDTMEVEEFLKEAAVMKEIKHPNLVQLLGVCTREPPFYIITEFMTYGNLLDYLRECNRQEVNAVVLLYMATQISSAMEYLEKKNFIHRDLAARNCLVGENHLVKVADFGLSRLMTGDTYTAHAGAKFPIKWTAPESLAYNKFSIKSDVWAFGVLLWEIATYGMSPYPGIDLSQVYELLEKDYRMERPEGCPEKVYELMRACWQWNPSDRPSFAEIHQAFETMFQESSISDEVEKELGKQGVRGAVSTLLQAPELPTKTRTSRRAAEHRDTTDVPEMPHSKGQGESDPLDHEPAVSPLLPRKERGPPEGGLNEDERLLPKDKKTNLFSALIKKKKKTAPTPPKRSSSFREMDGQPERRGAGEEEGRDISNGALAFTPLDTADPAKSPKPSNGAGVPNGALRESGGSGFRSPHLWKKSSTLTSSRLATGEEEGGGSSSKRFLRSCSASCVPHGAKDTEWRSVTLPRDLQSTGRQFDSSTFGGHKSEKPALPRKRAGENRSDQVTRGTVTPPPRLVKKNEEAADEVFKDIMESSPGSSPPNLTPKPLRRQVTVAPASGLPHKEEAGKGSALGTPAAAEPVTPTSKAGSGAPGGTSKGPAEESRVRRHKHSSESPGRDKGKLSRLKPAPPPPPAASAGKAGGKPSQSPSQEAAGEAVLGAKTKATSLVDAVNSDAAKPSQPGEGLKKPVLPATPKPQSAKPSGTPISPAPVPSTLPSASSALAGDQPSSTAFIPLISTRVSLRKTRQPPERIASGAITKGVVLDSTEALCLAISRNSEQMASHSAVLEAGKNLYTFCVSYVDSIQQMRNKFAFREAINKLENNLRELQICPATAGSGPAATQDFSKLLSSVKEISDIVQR
Ras and Rab interactor 1/Tyrosine-protein kinase ABL1, sequence (Q13671 whole entry): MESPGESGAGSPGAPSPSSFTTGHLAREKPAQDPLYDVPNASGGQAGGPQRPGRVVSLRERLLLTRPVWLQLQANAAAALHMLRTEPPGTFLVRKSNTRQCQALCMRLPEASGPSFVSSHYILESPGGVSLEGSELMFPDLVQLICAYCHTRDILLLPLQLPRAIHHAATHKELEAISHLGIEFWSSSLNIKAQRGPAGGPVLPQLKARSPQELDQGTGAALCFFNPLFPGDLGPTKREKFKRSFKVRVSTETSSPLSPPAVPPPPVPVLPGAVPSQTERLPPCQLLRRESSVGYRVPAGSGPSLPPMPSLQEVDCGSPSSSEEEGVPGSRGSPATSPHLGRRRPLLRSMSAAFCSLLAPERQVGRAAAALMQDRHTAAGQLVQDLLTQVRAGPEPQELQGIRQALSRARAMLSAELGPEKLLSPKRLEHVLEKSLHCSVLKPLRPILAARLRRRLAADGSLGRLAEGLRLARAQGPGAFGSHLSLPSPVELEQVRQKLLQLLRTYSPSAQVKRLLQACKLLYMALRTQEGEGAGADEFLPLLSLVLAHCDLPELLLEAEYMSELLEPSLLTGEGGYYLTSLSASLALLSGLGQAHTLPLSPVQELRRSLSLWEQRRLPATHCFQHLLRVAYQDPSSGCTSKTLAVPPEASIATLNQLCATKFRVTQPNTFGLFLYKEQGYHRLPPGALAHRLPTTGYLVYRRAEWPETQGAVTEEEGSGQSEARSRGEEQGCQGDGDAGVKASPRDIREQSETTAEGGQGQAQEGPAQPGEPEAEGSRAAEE
T3 sequence (P61956 whole entry): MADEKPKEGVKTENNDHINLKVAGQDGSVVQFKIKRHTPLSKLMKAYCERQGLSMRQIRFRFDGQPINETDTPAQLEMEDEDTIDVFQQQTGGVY
T4 sequence (P63165 whole entry): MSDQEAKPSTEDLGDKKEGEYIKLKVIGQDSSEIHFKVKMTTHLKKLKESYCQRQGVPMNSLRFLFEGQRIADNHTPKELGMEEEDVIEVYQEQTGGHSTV
Melanocortin receptor 4, sequence (P32245 whole entry): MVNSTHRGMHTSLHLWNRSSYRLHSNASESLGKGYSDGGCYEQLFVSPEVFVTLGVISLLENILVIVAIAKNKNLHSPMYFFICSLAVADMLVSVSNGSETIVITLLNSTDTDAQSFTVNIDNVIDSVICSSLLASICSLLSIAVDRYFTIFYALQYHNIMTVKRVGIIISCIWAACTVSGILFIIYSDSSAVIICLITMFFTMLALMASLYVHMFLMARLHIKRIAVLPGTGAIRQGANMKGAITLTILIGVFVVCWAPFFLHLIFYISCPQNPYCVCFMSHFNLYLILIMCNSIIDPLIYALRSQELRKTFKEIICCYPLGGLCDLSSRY
Steroidogenic factor 1, sequence (Q13285 whole entry): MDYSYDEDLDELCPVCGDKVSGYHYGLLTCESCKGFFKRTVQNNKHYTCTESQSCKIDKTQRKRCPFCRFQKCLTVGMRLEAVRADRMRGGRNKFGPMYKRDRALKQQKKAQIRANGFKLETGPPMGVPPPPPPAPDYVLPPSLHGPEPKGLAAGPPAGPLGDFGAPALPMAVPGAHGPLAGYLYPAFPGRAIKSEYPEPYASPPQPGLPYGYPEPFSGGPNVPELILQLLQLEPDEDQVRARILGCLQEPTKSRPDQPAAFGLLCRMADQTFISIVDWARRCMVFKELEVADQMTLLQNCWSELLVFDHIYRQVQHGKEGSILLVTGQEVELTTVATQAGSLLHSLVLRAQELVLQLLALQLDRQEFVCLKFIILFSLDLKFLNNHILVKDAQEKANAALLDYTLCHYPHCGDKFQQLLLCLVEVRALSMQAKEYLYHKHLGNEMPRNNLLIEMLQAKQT
Nuclear receptor subfamily 5 group A member 2, sequence (O00482 whole entry): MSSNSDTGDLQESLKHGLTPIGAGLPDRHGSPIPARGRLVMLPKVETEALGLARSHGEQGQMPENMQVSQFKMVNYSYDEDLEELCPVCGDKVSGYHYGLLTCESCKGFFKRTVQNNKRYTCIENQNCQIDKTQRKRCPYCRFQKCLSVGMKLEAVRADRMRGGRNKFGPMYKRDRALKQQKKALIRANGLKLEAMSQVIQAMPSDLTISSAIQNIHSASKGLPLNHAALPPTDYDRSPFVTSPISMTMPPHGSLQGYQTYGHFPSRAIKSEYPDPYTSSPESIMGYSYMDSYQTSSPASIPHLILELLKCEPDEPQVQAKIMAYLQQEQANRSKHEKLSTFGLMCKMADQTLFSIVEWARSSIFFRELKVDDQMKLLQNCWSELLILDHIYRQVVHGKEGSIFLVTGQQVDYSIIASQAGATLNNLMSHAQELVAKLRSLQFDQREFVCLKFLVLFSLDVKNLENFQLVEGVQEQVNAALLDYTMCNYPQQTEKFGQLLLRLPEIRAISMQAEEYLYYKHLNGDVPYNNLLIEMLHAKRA

SMILES: O=c1oc2ccccc2cc1-c1nc2c(s1)CCCC2
- IC50 (cells): > 67.5 µM (inactive)
- IC50 [1]: > 0.278 µM (active)

- IC50 [2]: > 73.5 µM (inactive)
SMILES: CCCCc1nnc(NC(=O)c2ccc(OCc3c(C)noc3C)cc2)s1

- IC50 [2]: 16.7 µM (inactive)
- IC50 [3]: 8.62 µM (active)
SMILES: OC[C@@H]1CN(Cc2ccc(-c3ccccc3)cc2)C[C@H](n2cnc3c(NC4CCC4)ncnc32)O1

SMILES: CC(=O)Nc1cc(-c2cccnc2)cn2c(-c3ccc(F)cc3)cnc12
- EC50 (Melanocortin receptor 4): > 89.2 µM (inactive)
- IC50 [4]: 22.3 µM (inactive)
- IC50 (Steroidogenic factor 1): 4.56 µM (active)
- IC50 [5]: 35.9 µM (inactive)

SMILES: C[C@H]([C@@H](O)[C@@H](O)[C@@H](C)C(C)(C)C)[C@H]1CC[C@H]2[C@@H]3CC[C@H]4C[C@H](OS(=O)(=O)O)[C@@H](OS(=O)(=O)O)C[C@]4(C)[C@H]3CC[C@]12C
- IC50 [6]: 25.5 µM (inactive)
- IC50 [7]: 11 µM (active)
- IC50 [8]: 16.3 µM (active)
- IC50 [9]: 22.5 µM (inactive)
